In patent US10336784B2, “Methods for modular synthesis of N-glycans and arrays thereof” (Academia Sinica, priority 2016, dated 2019):
“Also recorded” adds a separate entry of the source.

Key:
PG16 [1] = experiment: Glycan microarray on NHS-coated glass slide, binding of PG16; parameters: species or system human; conditions: NHS-activated glass slide, glycans printed at 100 μM
Experimental: To gain insights into the glycan specificities of these antibodies, the inventors used our newly developed array to profile the ligands of HIV-1 bNAbs. The synthetic N-glycan ligands were printed on NHS-activated glass slides through amide bond formation with 100 μM each of glycans 1-33 (FIG. 198). Each sample was printed with five replicates and slide images were obtained from a fluorescence scan after incubation with DyLight649-conjugated donkey anti-Human IgG antibody. […] Furthermore, PG9 and PGTs 141-145 were not detected to bind any of the glycans on the NHS array, probably due to their extremely weak binding. (FIGS. 203, 204A, 204B, 204C, 205A, 205B and 206).
a) Fabrication of N-hydroxy succinimide-coated glass slide: All monovalent glycans (G1-33) were prepared in 10 mM concentration individually and served as mother solutions which are to be diluted with printing buffer to prepare a working solution. […]
(§1) The slide was scanned at 635 nm with a microarray fluorescence chip reader (GenePix® 4300A, Molecular Devices Corporation). Scanned images were analyzed with GenePix Pro 6.0 analysis software (Molecular Devices Corporation,). […] The intensities was calculated and averaged. […]

PGTs 141-144 = experiment: Glycan array on ACG slide, binding of PGTs 141-144; parameters: species or system human; conditions: panel of glycans I-XI
Experimental: To understand the exact glycan epitopes recognized by antibodies PGTs 141-145^20, a panel of glycans I-XI on the ACG slide was prepared for analysis.
b) Fabrication of aluminum oxide coated glass slide. The aluminum oxide glass substrate provides advantages for being able to be assessed by both mass spectrometry and fluorescence scanning. […] There are many reports describing the surface of micron to nano pore structures of anodized aluminum oxide. However, only a few articles have mentioned the initial planar layer of aluminum oxide16 during the treatment of surface anodization. In the development of AAO glass substrate, a computer experimental design program (Design Expert 8.0) has been used to optimize the planar layer of surface anodized aluminum oxide to be best used in glycan microarray 17.
Antibodies PG9, PG16 and PGTs 141-145 were diluted by binding buffer to 100 μg/mL prior to use. DyLight649-conjugated Donkey Anti-Human IgG antibody was then pre-complexed with primary antibodies. The final concentration of the precomplexed solution was adjusted to 50 μg/mL with binding buffer. […]
as §1

PG16 [2] = experiment: Determination of surface dissociation constants (KD,surf) on ACG slide; assay type: binding, human
Description: (§2) To further understand why glycan binding to these bNAbs was not readily observed on the NHS-coated glass slides, the inventors conducted a specificity test with the ACG array. […] Therefore, the inventors can simply adjust the concentration of glycan to control the density and distance of glycans on the ACG surface. To prepare a representative ACG array, glycans I-XI (FIG. 5a) were linked to a phosphonic acid tail for spontaneous covalent immobilization on the ACG slide (Supplementary Scheme S21, as shown in FIG. 129). After incubation with a secondary antibody, the inventors determined the dissociation constant (KD.surf.)^59 of the glycans interacting with the antibody of interest. […]
(§3) b) Fabrication of aluminum oxide coated glass slide. The aluminum oxide glass substrate provides advantages for being able to be assessed by both mass spectrometry and fluorescence scanning. […]
The aluminum oxide coated glass slides for the determination of dissociation constants were spotted with 100 and 50 μM concentrations of glycans Man5GlcNAc2 (V), hybrid type (XI), bi-antennary complex type (XII), V+XI (1:1 mole ratio), V+XII, and XI+XII. […] Finally, slides were washed with PBST, spin dried and scanned at 450 nm with a microarray fluorescence chip reader. Scanned images were analyzed with GenePix Pro 6.0 analysis software. […]

PG9 = experiment: Glycan array on aluminium oxide-coated glass (ACG) slide, homo- and mixed glycans, binding of PG9; conditions: homogeneous array of glycans I-XI
Description: To evaluate whether the ACG array format could enhance the detection sensitivity, the inventors performed a ligand specificity profiling at various concentrations of PG9. […] Previously, it was shown that PG9 required Man5GlcNAc2 at primary (Asn160) and secondary (Asn156 or Asn173) binding sites together with a short peptide strand in gp120 recognition^26, whereas the composition of glycan at Asn156 or Asn173 was defined as a complex-type glycan in later studies^30,31. In the present study, the strong PG9 interaction with the hybrid-type structure compared to both Man5GlcNAc2 and complex-type glycans indicated the presence of a hybrid-type glycan or an oligomannose and a complex-type glycan in close proximity as ligand(s).
To evaluate the glycan combination at Asn160 and Asn156/Asn173 of gp120 that best fits into the PG9 binding pocket, the inventors printed two different mixed-glycan arrays. […]
as §3, §1

PG16 [3] = experiment: Glycan array on aluminium oxide-coated glass (ACG) slide, homo- and mixed glycans, binding of PG16; conditions: 100 μM glycan or mixtures of IV and XI
Description: as §2, with “interest. Using the ACG slide, the signal intensity was enhanced, as shown by the use of PG16 at 1 μg/mL on the ACG slide in comparison to 25 μg/mL used on the NHS-coated glass slide (FIG. 5b and Supplementary FIG. 199).” for “interest.”
as §3, §1

5-Aminopentyl-di-[5-Acetamido-3,5-dideoxy-D-glycero-α-D-galacto-2-nonulopyrano-sylonate-(2→6)-β-D-galactopyranosyl-(1→4)-2-acetamido-2-deoxy-β-D-glucopyranosyl-(1→2)-α-D-mannopyranosyl]-(1→3),(1→6)-β-D-mannopyranosyl-(1→4)-2-acetamido-2-deoxy-β-D-glucopyranosyl-(1→4)-(α-L-fucopyranosyl-(1→6)-2-acetamido-2-deoxy-β-D-glucopyranoside [glycan 19]
binding of PG16 (PG16 [1]): not affected by the presence of the core fucose

CC(=O)N[C@H]1[C@H](O[C@H]2[C@H](O)[C@@H](NC(C)=O)C(O)O[C@@H]2CO)O[C@H](CO)[C@@H](O[C@@H]2O[C@H](CO[C@H]3O[C@H](CO[C@H]4O[C@H](CO)[C@@H](O)[C@H](O)[C@@H]4O[C@H]4O[C@H](CO)[C@@H](O)[C@H](O)[C@@H]4O)[C@@H](O)[C@H](O[C@H]4O[C@H](CO)[C@@H](O)[C@H](O)[C@@H]4O[C@H]4O[C@H](CO)[C@@H](O)[C@H](O)[C@@H]4O)[C@@H]3O)[C@@H](O)[C@H](O[C@H]3O[C@H](CO)[C@@H](O)[C@H](O)[C@@H]3O[C@H]3O[C@H](CO)[C@@H](O)[C@H](O)[C@@H]3O[C@H]3O[C@H](CO)[C@@H](O)[C@H](O)[C@@H]3O)[C@@H]2O)[C@@H]1O (stereo partly shown) [Man9GlcNAc2]
binding of PGTs 141-144 (PGTs 141-144): significant decrease in the affinity

CC(=O)NC1C(O)[C@H](O[C@@H]2OC(CO[C@]3(C(=O)O)CC(O)[C@@H](NC(C)=O)C([C@H](O)[C@H](O)CO)O3)[C@H](O)C(O)C2O)C(CO)O[C@H]1OC1C(O)[C@H](O)C(CO)O[C@@H]1OC1C(O)[C@H](O[C@@H]2C(CO)O[C@@H](O[C@@H]3C(CO)O[C@@H](OCCNC(=O)OCCOCCOCCP(=O)(O)O)C(NC(C)=O)C3O)C(NC(C)=O)C2O)OC(CO[C@H]2OC(CO[C@H]3OC(CO)[C@@H](O)C(O)C3O)[C@@H](O)C(O[C@H]3OC(CO)[C@@H](O)C(O)C3O)C2O)[C@H]1O (stereo partly shown) [X]
Kd (PG16 [2]; read-out: KD (binding affinity of PG16)): 935 nM | binding of PG9 to single glycans (PG9): apparent specificity; also recorded: significant enhancement in binding

Man5GlcNAc2
binding of PG16 (PG16 [1]): could not observe binding | signal intensities for binding of PG16 (PG16 [2]; glycans spotted at 100 and 50 μM): too weak to determine the KD | binding of PG16 (PG16 [3]): unable to detect PG16 binding
